# From article PMC12610274, “Identification of Marrubiin as a Cathepsin C Inhibitor for Treating Rheumatoid Arthritis” (Molecules, 2025)
# Key:
# [1] = Cytotoxicity assay, RAW264.7 cell line; format: cell-based; details: mouse, RAW264.7 cells
# Protocol: (§1) RAW264.7 cells and U937 cells in the logarithmic growth phase were counted and diluted, and the concentrations of the single-cell suspensions of the two types of cells were adjusted to 5 × 10^4 cells/mL and 3 × 10^4 cells/mL, respectively. After thorough mixing, the cells were seeded into a 96-well plate, with 100 μL of cell suspension added to each well. Prepare the working solution of test compounds using the corresponding medium as the solvent, with the concentration of working solution being 2 times the final test concentration (2.5 μM, 5 μM, 10 μM, 20 μM, and 40 μM). Twenty-four hours after cell seeding, the compound working solutions were added to the compound test wells, and the same volume of medium was added to the negative control wells, followed by continuous incubation for another 24 h. Only the wells with the same volume but without cells served as the blank control group. The CellTiter-Lumi™ luminescent cell viability assay kit (Beyotime Biotechnology, Shanghai, China, C0065XL) was used to detect cell viability according to the standard operating procedures. Each group of tests was independently repeated at least 3 times, and IC50 values were calculated using SPSS 10.0.
# [2] = tested on: Cat G; assay: Cat G activity in blood and bone marrow of mice; format: in vivo, C57BL/6 mice; details: 30 mg/kg daily gavage, 7 days
# Protocol: (§2) A total of 25 C57BL/6 mice (6–8 weeks old, weighing approximately 20 g, with equal numbers of males and females) were randomly divided into five groups. Mice in the compound-treated groups were orally administered the compound once daily at doses of 0.3, 3, and 30 mg/kg for 7 consecutive days. […] Mice in the normal group were given an equal volume of normal saline at the same time points. The body weight, death rate, and behavior were observed and recorded daily for one week. After 7 days, bone marrow and blood samples were collected from the mice and lysed using 8% Triton X-100 buffer. The lysates were stored at −20 °C until testing. The activity assays for CTSC and NSPs were performed as described above. The mice were anesthetized and the tissues were taken for H&E staining.
# [3] = tested on: NE; assay: AIA model, serum NE activity; format: in vivo, Sprague-Dawley rats; details: rat AIA, 30 mg/kg gavage, 15 days
# Protocol: (§3) Thirty 4-week-old male Sprague-Dawley rats (weighing 120–130 g) were randomly divided into 6 groups (5 rats per group) after 1 week of adaptive feeding, namely the normal group, model group, low-dose experimental group (15 mg/kg), medium-dose experimental group (30 mg/kg), high-dose experimental group (60 mg/kg), and positive control group (30 mg/kg). Starting from Day 0 of the experiment, rats in the administration groups and model group were injected intradermally with 0.1 mL of CFA into the left hind paw to induce AIA, while rats in the normal group were injected intradermally with an equal volume (0.1 mL) of normal saline as a control. After 13 consecutive days of feeding, rats treated with CFA successfully developed typical AIA symptoms. […] During the experiment, the body weight, mental state, activity ability, hair color changes, and paw appearance changes of the rats were observed and recorded daily. In addition, on Day 0 of the experiment (baseline period), the basic paw volume of all rats was accurately measured using a plethysmometer, which served as a reference standard for subsequent evaluation of inflammation severity. From Day 13 to Day 28 of the experiment, the paw volume of the rats was measured repeatedly every 3 days. The degree of paw swelling was quantified by calculating the change in paw volume relative to the baseline. […] The cytokine levels in serum were measured. […]
# [4] = molecular target: T1, CTSC (Rattus norvegicus, UniProt P80067); assay: AIA model, serum CTSC activity; format: in vivo, Sprague-Dawley rats; details: 30 mg/kg gavage, 15 days
# T1 construct: from tissue; host or cells: serum of Sprague-Dawley rats (AIA model)
# T1 sequence (P80067 25-462): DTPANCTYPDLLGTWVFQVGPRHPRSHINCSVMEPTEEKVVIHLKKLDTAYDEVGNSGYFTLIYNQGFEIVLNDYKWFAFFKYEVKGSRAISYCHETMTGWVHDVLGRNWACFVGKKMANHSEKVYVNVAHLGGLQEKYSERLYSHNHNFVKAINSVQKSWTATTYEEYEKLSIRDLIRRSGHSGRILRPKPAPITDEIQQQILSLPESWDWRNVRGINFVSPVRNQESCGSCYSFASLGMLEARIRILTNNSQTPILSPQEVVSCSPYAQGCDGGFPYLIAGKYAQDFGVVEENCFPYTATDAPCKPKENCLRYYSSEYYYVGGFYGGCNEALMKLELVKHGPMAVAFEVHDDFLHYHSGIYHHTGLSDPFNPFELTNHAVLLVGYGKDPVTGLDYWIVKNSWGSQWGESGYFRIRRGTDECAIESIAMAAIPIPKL
# Protocol: as §3
# [5] = tested on: PR3; assay: PR3 activity in blood and bone marrow of mice; format: in vivo, C57BL/6 mice; details: 30 mg/kg daily gavage, 7 days
# Protocol: as §2
# [6] = tested on: NE; assay: NE activity in blood and bone marrow of mice; format: in vivo, C57BL/6 mice; details: 30 mg/kg daily gavage, 7 days
# Protocol: as §2
# [7] = molecular target: T2, CTSC (Mus musculus, UniProt P97821); assay: CTSC activity in blood and bone marrow of mice; format: in vivo, C57BL/6 mice; details: 30 mg/kg daily gavage, 7 days
# T2 construct: from tissue; host or cells: mouse blood and bone marrow lysates
# T2 sequence (P97821 25-462): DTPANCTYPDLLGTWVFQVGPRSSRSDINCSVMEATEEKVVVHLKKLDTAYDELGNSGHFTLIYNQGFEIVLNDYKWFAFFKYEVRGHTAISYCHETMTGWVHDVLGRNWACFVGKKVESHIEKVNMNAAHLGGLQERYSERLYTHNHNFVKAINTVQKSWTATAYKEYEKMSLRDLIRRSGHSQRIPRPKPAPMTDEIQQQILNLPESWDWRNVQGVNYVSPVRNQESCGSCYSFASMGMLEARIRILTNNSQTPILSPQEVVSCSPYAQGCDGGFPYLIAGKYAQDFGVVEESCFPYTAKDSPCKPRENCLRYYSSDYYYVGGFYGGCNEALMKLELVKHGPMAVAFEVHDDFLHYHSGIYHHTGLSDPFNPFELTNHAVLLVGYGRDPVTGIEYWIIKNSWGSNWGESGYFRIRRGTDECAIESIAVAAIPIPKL
# Protocol: as §2
# [8] = tested on: Cat G; assay: NSPs activity in U937 cells after 5 days of treatment, Cat G; format: cell-based, human; details: U937, 10 μM
# Protocol: (§4) U937 cells in the logarithmic growth phase were collected and equally divided into six portions. Four of these portions were treated with DMSO solutions of the test compound at varying concentrations to achieve final concentrations of 1.25, 2.5, 5, and 10 μM, respectively. An equal volume of DMSO was added to one portion as a blank control, while another portion treated with a DMSO solution of AZD7986 served as a positive control. The cells were cultured under standard U937 conditions for 5 consecutive days, with daily medium changes and fresh compound treatments administered using the same protocol. Following 5 days of treatment, cells were harvested, washed twice thoroughly with phosphate-buffered saline, and lysed in phosphate-buffered saline containing 1% Triton X-100. The lysates were centrifuged to collect the supernatant, and protein concentrations were determined as previously described to ensure equal total protein loading across all samples. The prepared samples were stored at −20 °C until further analysis. Different assay buffers were prepared for diluting samples and measuring the activities of specific NSPs: a buffer containing 50 mM Tris and 750 mM NaCl (pH 7.4) was used for NE and PR3; a buffer containing 50 mM Tris, 750 mM NaCl, 5 mM EDTA (pH 7.4) was used for Cat G; and a buffer containing 25 mM MES, 50 mM NaCl, 5 mM DTT (pH 6.0) was used for CTSC. […]
# [9] = tested on: Cat G; assay: AIA model, serum Cat G activity; format: in vivo, Sprague-Dawley rats; details: rat AIA, 30 mg/kg gavage, 15 days
# Protocol: as §3
# [10] = tested on: AIA model; assay: Adjuvant-induced arthritis (AIA) model, disease severity; format: in vivo, Sprague-Dawley rats; details: rat AIA
# Protocol: Thirty 4-week-old male Sprague-Dawley rats (weighing 120–130 g) were randomly divided into 6 groups (5 rats per group) after 1 week of adaptive feeding, namely the normal group, model group, low-dose experimental group (15 mg/kg), medium-dose experimental group (30 mg/kg), high-dose experimental group (60 mg/kg), and positive control group (30 mg/kg). Starting from Day 0 of the experiment, rats in the administration groups and model group were injected intradermally with 0.1 mL of CFA into the left hind paw to induce AIA, while rats in the normal group were injected intradermally with an equal volume (0.1 mL) of normal saline as a control. After 13 consecutive days of feeding, rats treated with CFA successfully developed typical AIA symptoms. […] During the experiment, the body weight, mental state, activity ability, hair color changes, and paw appearance changes of the rats were observed and recorded daily. In addition, on Day 0 of the experiment (baseline period), the basic paw volume of all rats was accurately measured using a plethysmometer, which served as a reference standard for subsequent evaluation of inflammation severity. From Day 13 to Day 28 of the experiment, the paw volume of the rats was measured repeatedly every 3 days. The degree of paw swelling was quantified by calculating the change in paw volume relative to the baseline. Meanwhile, the arthritis index score was calculated based on the range of paw redness and swelling, the severity of swelling, and the degree of limb movement limitation, so as to comprehensively evaluate the inflammatory state. On Day 28 of the experiment (the end of the administration cycle), blood samples were collected via abdominal aortic puncture. The blood samples were centrifuged at 3000 rpm for 20 min, and the upper serum was collected and stored at −20 °C for subsequent detection. The rats were then sacrificed, and their ankle joint tissues were harvested for subsequent pathological section observation and analysis. The cytokine levels in serum were measured. The activity detection of CTSC and NSPs was carried out according to the above methods.
# [11] = tested on: PR3; assay: NSPs activity in U937 cells after 5 days of treatment, PR3; format: cell-based, human; details: U937, 10 μM
# Protocol: as §4
# [12] = tested on: PR3; assay: AIA model, serum PR3 activity; format: in vivo, Sprague-Dawley rats; details: rat AIA, 30 mg/kg gavage, 15 days
# Protocol: as §3
# [13] = molecular target: T3, CTSC (Homo sapiens, UniProt P53634); assay: CTSC activity in U937 cells after 5 days of treatment; format: cell-based; set-up: endogenous in cells; host or cells: U937; details: U937, 5 days, marrubiin and AZD7986 at the same concentration
# Protocol: as §4
# Target sequence in this assay (P53634 25-463): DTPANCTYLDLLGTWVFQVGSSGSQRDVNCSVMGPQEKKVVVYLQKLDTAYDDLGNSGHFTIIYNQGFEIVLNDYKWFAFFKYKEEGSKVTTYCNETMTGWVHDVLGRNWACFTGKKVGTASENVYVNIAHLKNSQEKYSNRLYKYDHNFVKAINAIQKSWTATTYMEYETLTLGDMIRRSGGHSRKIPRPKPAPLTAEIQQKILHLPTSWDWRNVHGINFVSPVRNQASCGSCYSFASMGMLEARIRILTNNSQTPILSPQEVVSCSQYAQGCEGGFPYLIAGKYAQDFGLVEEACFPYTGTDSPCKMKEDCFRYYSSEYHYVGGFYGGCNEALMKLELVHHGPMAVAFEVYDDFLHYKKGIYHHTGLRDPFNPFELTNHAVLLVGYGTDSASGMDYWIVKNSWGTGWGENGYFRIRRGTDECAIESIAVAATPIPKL
# [14] = Cytotoxicity assay, U937 cell line; format: cell-based; details: human, U937 cells
# Protocol: as §1
# [15] = tested on: NE; assay: NSPs activity in U937 cells after 5 days of treatment, NE; format: cell-based, human; details: U937, 10 μM
# Protocol: as §4
# [16] = molecular target: T4, intracellular CTSC (Homo sapiens, UniProt P53634); assay: CTSC cell-based assay using the U937 cell line; details: read-out: Cell-Based Enz (IC50: nM)
# T4 construct: endogenous in cells; host or cells: U937
# T4 sequence (P53634 25-463): as above
# Protocol: Cell-based CTSC enzymatic activity assays were performed in 96-well clear-bottom black microplates. […] The detection substrate, H-Gly-Arg-AFC, was diluted to 100 µM in serum-free medium and stored for later use. U937 cells in the logarithmic growth phase were harvested, washed with PBS, and counted. A single-cell suspension was prepared at a density of 1.0 × 10^6 cells/mL using serum-free medium. 30 µL of cell suspension was seeded into each well of the 96-well plate. To the test wells, 10 µL of the compound working solution was added, while 10 µL of serum-free medium was added to the control wells. The plate was pre-incubated in a cell culture incubator at 37 °C for 3 h. Subsequently, 10 µL of H-Gly-Arg-AFC was added to initiate the enzymatic reaction, and the plate was further incubated at 37 °C for 1 h. Fluorescence measurements were performed using a multimode microplate reader at excitation/emission wavelengths of 400/505 nm. Each group of tests was independently repeated at least 3 times, and IC50 values were calculated using SPSS 10.0.
# [17] = molecular target: T3, CTSC; assay: Human recombinant CTSC isolated enzyme assay; format: biochemical; set-up: purchased R&D Systems; details: for IC50: human recombinant CTSC, cell-free, 12-point dose-response, read-out: CTSC Enz (IC50: nM)
# Protocol: Both recombinant CTSL and CTSC for in vitro cell-free-based enzymatic activity assay can be purchased from R&D Systems (Minneapolis, MN, USA), a biotechnology company. According to the standardized procedures and material ratios provided by R&D Systems, prepare the activation solution (25 mM MES + 5 mM DTT, pH 6.0) and the assay solution (25 mM MES + 50 mM NaCl + 5 mM DTT, pH 6.0) in advance for later use. Dilute the detection substrate H-Gly-Arg-AMC to a 200 µM solution with the assay solution for standby. Prepare the working solution of compounds to be tested using the assay solution, with the concentration of working solution being 10 times the final test concentration. Dilute CTSC and CTSL, respectively, with cold activation solution. Thoroughly mix the two activation solutions containing the proteins to achieve final concentrations of 300 nM for CTSL and 440 nM for CTSC. After co-incubation for 1 h, the activated CTSC treated with CTSL can be used for the enzymatic activity inhibition efficacy test of compounds. Dilute the activated CTSC to 4.4 nM with cold assay buffer. Incubate 4 μL of the activated CTSC with 1 μL of the compound working solution (test group) or 1 μL of blank assay solution (control group) at room temperature for 3 h. Then, add 5 μL of the detection substrate to achieve a final concentration of 100 μM. Mix 5 µL each of the assay solution and the substrate solution as the blank group. After 1 h, the absorbance of detection substrate was measured using a multifunctional microplate reader at excitation/emission wavelengths of 380 nm/460 nm. The inhibitory efficacy of molecules on enzyme activity was calculated based on the absorbance difference between test group and control group. […] Each group of tests mentioned above was independently repeated at least 3 times, and IC50 values were calculated using SPSS 10.0.
# Target sequence in this assay (P53634 25-134 limits assumed): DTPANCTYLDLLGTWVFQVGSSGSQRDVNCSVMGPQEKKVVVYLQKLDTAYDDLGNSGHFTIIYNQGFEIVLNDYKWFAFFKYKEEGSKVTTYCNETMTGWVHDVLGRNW
# Target sequence in this assay (P53634 231-394 limits assumed): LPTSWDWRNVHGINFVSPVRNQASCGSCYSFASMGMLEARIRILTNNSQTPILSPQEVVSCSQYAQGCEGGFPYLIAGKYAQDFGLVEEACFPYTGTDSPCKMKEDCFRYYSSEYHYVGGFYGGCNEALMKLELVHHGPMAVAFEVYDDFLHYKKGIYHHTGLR
# Target sequence in this assay (P53634 395-463 limits assumed): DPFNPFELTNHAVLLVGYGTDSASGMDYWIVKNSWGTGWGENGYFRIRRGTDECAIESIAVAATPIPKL
structure (smiles),measurement,setting,value
"Cn1c(=O)oc2ccc(-c3ccc(C[C@@H](C#N)NC(=O)[C@@H]4CNCCCO4)cc3)cc21 [AZD7986, reference compound]",IC50 at 24 h,[1],> 10 µM
same,remaining activity rate of Cat G,[2]; blood,~35.2%
same,remaining activity rate of Cat G,[2]; bone marrow,~30.5%
same,"serum NE activity, % of control group",[3],~30%
same,"serum CTSC activity, % of control group",[4],approximately 35%
same,remaining activity rate of PR3,[5]; blood,~10.3%
same,remaining activity rate of PR3,[5]; bone marrow,~15.8%
same,remaining activity rate of NE,[6]; blood,~8.1%
same,remaining activity rate of NE,[6]; bone marrow,~11.7%
same,remaining activity rate of CTSC,[7]; blood,~18.3%
same,remaining activity rate of CTSC,[7]; bone marrow,approximately 10.6%
same,"Cat G activity, % of DMSO group",[8],12.7%
same,"serum Cat G activity, % of control group",[9],approximately 58%
same,"histopathology of ankle joints (H&E, Safranin O/Fast Green)",[10]; 30 mg/kg,reduced the histopathological statement
same,clinical score vs AIA model group,"[10]; 30 mg/kg gavage, from day 16 onwards",significantly lower than those of AIA model group
same,volume and thickness of inflamed paws,"[10]; 30 mg/kg, days 16 to 28",continuous reduction in volume and a gradual decrease in thickness
same,body weight recovery,"[10]; 30 mg/kg, from day 16 onwards",most significant weight recovery effects
same,"PR3 activity, % of DMSO group",[11],8.1%
same,"serum PR3 activity, % of control group",[12],~40%
same,residual CTSC activity,[13],less than 8%
same,IC50 at 24 h,[14],> 10 µM
same,"NE activity, % of DMSO group",[15],5.1%
"CC(=O)OCC1=CO[C@@H](OC(=O)CC(C)C)[C@H]2C1=C[C@H](OC(=O)CC(C)(C)OC(C)=O)[C@]21CO1 [Acevaltrate, acevaltrate]",IC50 at 24 h,[1],> 10 µM
same,IC50,[16],702.1 ± 3.2 nM
same,IC50,[17],1053 ± 2.2 nM
same,IC50 at 24 h,[14],> 10 µM
N[C@@H]1CON=C1O [D-cycloserine],enzymatic inhibitory activity against CTSC,[17]; result in words,no enzymatic inhibitory activity at all
"N[C@H]1CONC1=O [L-Cycloserine, L-cycloserine]",IC50 at 24 h,[1],> 10 µM
same,IC50,[16],> 5000 nM
same,IC50,[17],1101 ± 2 nM
same,IC50 at 24 h,[14],> 10 µM
"CC1(C)CC[C@]2(C(=O)O)[C@H](O)C[C@]3(C)C(=CC[C@@H]4[C@@]5(C)CC[C@H](O)[C@@](C)(C=O)[C@@H]5CC[C@]43C)[C@@H]2C1 [Quillaic acid, quillaic acid]",IC50 at 24 h,[1],> 10 µM
same,IC50,[16],> 5000 nM
same,IC50,[17],125 ± 2.9 nM
same,IC50 at 24 h,[14],> 10 µM
"CN1C2CC(O)CC1C1OC12 (stereo not drawn) [Scopine, scopine]",IC50 at 24 h,[1],> 10 µM
same,IC50,[16],337 ± 1.8 nM
same,IC50,[17],135 ± 4.7 nM
same,IC50 at 24 h,[14],> 10 µM
